Results as given in ChEMBL document CHEMBL1152177, “Imidazole pyrimidine amides as potent, orally bioavailable cyclin-dependent kinase inhibitors” (Bioorg Med Chem Lett, 2008).

How the values were obtained:
[1] = Clearance in Han-Wistar rat at 1.0 umol/kg, iv; format: ADME, organism-based; settings: in vivo
[2] = Bioavailability in Han-Wistar rat at 20 umol/kg, po; format: ADME, organism-based; settings: in vivo
[3] = Half life in Han-Wistar rat at 1.0 umol/kg, iv; format: ADME, organism-based; settings: in vivo
[4] = AUC in Han-Wistar rat at 20 umol/kg, po; format: ADME, organism-based; settings: plasma
[5] = Distribution coefficient, log D of the compound; format: physicochemical; settings: octanol/water
[6] = Half life in nude mouse at 2.0 umol/kg, iv; format: ADME, organism-based; settings: in vivo
[7] = Bioavailability in Han-Wistar rat at 5 umol/kg, po; format: ADME, organism-based; settings: in vivo
[8] = Clearance in nude mouse at 2.0 umol/kg, iv; format: ADME, organism-based; settings: in vivo
[9] = AUC in Han-Wistar rat at 5 umol/kg, po; format: ADME, organism-based; settings: plasma
[10] = Volume of distribution at steady state in Han-Wistar rat at 1.0 umol/kg, iv; format: ADME, organism-based; settings: in vivo, read-out: Vdss
[11] = AUC in Han-Wistar rat at 1.0 umol/kg, iv; format: ADME, organism-based; settings: plasma
[12] = Volume of distribution at steady state in nude mouse at 2.0 umol/kg, iv; format: ADME, organism-based; settings: in vivo, read-out: Vdss
[13] = AUC in nude mouse at 2.0 umol/kg, iv; format: ADME, organism-based; settings: plasma

## CNC(=O)c1ccc(Nc2nccc(-c3cnc(C)n3C(C)C)n2)cc1F
[1]
  clearance: 11.9 mL/min/kg
[2]
  bioavailability: 47%
[3]
  half-life: 5.8 h
[4]
  AUC: 13.7 µM·h
[5]
  logD: 3
[6]
  half-life: 16.7 h
[7]
  bioavailability: 21%
[8]
  clearance: 18.5 mL/min/kg
[9]
  AUC: 1.5 µM·h
[10]
  Vd: 1.7 L/kg
[11]
  AUC: 1.4 µM·h
[12]
  Vd: 9.5 L/kg
[13]
  AUC: 1.8 µM·h
